Measurements from PubChem BioAssay AID1918938 (Molecular Pharmacology Branch, DTP, NCI, 2023).

Tested on: 556581-035-R-J1-PDC complex spheroid viability
Assay: Anticancer human tumor 556581-035-R-J1-PDC patient-derived ovarian carcinoma cell line growth inhibition
Conditions: for IC50: curve of first compound; for viability, T/C: stronger effect = lower value
Procedure, shortened: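 Drug combinations with the LSD1 inhibitor iadademstat tested on tumor cells co-cultured as spheroids with endothelial cells and mesenchymal stem cells. Concentrations descended in half-log increments from clinical Cmax or 10 microM.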

[1] = second compound 0.1 µM, first compound 0.0316 µM
[2] = second compound 0.1 µM, first compound 0.1 µM
[3] = second compound 0.1 µM, first compound 0.316 µM
[4] = second compound 0.1 µM, first compound 1 µM
[5] = second compound 0.316 µM, first compound 0.0316 µM
[6] = second compound 0.316 µM, first compound 0.1 µM
[7] = second compound 0.316 µM, first compound 0.316 µM
[8] = second compound 0.316 µM, first compound 1 µM
[9] = second compound 1 µM, first compound 0.0316 µM
[10] = second compound 1 µM, first compound 0.1 µM
[11] = second compound 1 µM, first compound 0.316 µM
[12] = second compound 1 µM, first compound 1 µM
[13] = second compound 3.16 µM, first compound 0.0316 µM
[14] = second compound 3.16 µM, first compound 0.1 µM
[15] = second compound 3.16 µM, first compound 0.316 µM
[16] = second compound 3.16 µM, first compound 1 µM
[17] = second compound 10 µM, first compound 0.0316 µM
[18] = second compound 10 µM, first compound 0.1 µM
[19] = second compound 10 µM, first compound 0.316 µM
[20] = second compound 10 µM, first compound 1 µM
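Note: spheroids exposed to agents for seven days.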
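Throughout, for viability, T/C: 100% = DMSO vehicle control wells.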

## COc1ccc([C@@H](O)c2cc(-c3ncnc4cc(N5CCOCC5)ccc34)c(F)cc2Cl)nn1 + NC1CCC(NC2CC2c2ccccc2)CC1
Second compound 0.1 µM
  IC50: 943 nM
Second compound 0.316 µM
  IC50: 582 nM
Second compound 1 µM
  IC50: 906 nM
Second compound 3.16 µM
  IC50: 847 nM
Second compound 10 µM
  IC50: 639 nM
[1]
  viability, T/C: 91%
[2]
  viability, T/C: 80.4%
[3]
  viability, T/C: 69%
[4]
  viability, T/C: 47.9%
Second compound 0.1 µM, first compound 3.16 µM
  viability, T/C: 37.7%
Second compound 0.1 µM, first compound 10 µM
  viability, T/C: 32.9%
[5]
  viability, T/C: 80.3%
[6]
  viability, T/C: 81.6%
[7]
  viability, T/C: 60.6%
[8]
  viability, T/C: 39.9%
Second compound 0.316 µM, first compound 3.16 µM
  viability, T/C: 37.7%
Second compound 0.316 µM, first compound 10 µM
  viability, T/C: 28.8%
[9]
  viability, T/C: 76%
[10]
  viability, T/C: 76.1%
[11]
  viability, T/C: 66.9%
[12]
  viability, T/C: 46.6%
Second compound 1 µM, first compound 3.16 µM
  viability, T/C: 35.6%
Second compound 1 µM, first compound 10 µM
  viability, T/C: 25.6%
[13]
  viability, T/C: 79.5%
[14]
  viability, T/C: 78.6%
[15]
  viability, T/C: 65.3%
[16]
  viability, T/C: 45.3%
Second compound 3.16 µM, first compound 3.16 µM
  viability, T/C: 37%
Second compound 3.16 µM, first compound 10 µM
  viability, T/C: 25.9%
[17]
  viability, T/C: 63.2%
[18]
  viability, T/C: 63.2%
[19]
  viability, T/C: 56.3%
[20]
  viability, T/C: 44.6%
Second compound 10 µM, first compound 3.16 µM
  viability, T/C: 33.3%
Second compound 10 µM, first compound 10 µM
  viability, T/C: 17%

## Nc1ncn(C2CC(O)C(CO)S2)c(=O)n1 (stereo not given) + NC1CCC(NC2CC2c2ccccc2)CC1
Second compound 0.1 µM
  IC50: 88.3 nM
Second compound 0.316 µM
  IC50: 98.8 nM
Second compound 1 µM
  IC50: 91.2 nM
Second compound 3.16 µM
  IC50: 85.2 nM
Second compound 10 µM
  IC50: 76.4 nM
Second compound 0.1 µM, first compound 0.000949 µM
  viability, T/C: 102%
Second compound 0.1 µM, first compound 0.003 µM
  viability, T/C: 93%
Second compound 0.1 µM, first compound 0.00949 µM
  viability, T/C: 99.5%
Second compound 0.1 µM, first compound 0.03 µM
  viability, T/C: 69.4%
Second compound 0.1 µM, first compound 0.0949 µM
  viability, T/C: 52.4%
Second compound 0.1 µM, first compound 0.3 µM
  viability, T/C: 41.5%
Second compound 0.316 µM, first compound 0.000949 µM
  viability, T/C: 91.5%
Second compound 0.316 µM, first compound 0.003 µM
  viability, T/C: 94.8%
Second compound 0.316 µM, first compound 0.00949 µM
  viability, T/C: 83.7%
Second compound 0.316 µM, first compound 0.03 µM
  viability, T/C: 73%
Second compound 0.316 µM, first compound 0.0949 µM
  viability, T/C: 49.9%
Second compound 0.316 µM, first compound 0.3 µM
  viability, T/C: 36.6%
Second compound 1 µM, first compound 0.000949 µM
  viability, T/C: 91.2%
Second compound 1 µM, first compound 0.003 µM
  viability, T/C: 93.3%
Second compound 1 µM, first compound 0.00949 µM
  viability, T/C: 79.6%
Second compound 1 µM, first compound 0.03 µM
  viability, T/C: 67%
Second compound 1 µM, first compound 0.0949 µM
  viability, T/C: 49.5%
Second compound 1 µM, first compound 0.3 µM
  viability, T/C: 39%
Second compound 3.16 µM, first compound 0.000949 µM
  viability, T/C: 96%
Second compound 3.16 µM, first compound 0.003 µM
  viability, T/C: 90%
Second compound 3.16 µM, first compound 0.00949 µM
  viability, T/C: 94.6%
Second compound 3.16 µM, first compound 0.03 µM
  viability, T/C: 67.8%
Second compound 3.16 µM, first compound 0.0949 µM
  viability, T/C: 51.1%
Second compound 3.16 µM, first compound 0.3 µM
  viability, T/C: 43.8%
Second compound 10 µM, first compound 0.000949 µM
  viability, T/C: 88.5%
Second compound 10 µM, first compound 0.003 µM
  viability, T/C: 83.2%
Second compound 10 µM, first compound 0.00949 µM
  viability, T/C: 71.9%
Second compound 10 µM, first compound 0.03 µM
  viability, T/C: 61.1%
Second compound 10 µM, first compound 0.0949 µM
  viability, T/C: 46%
Second compound 10 µM, first compound 0.3 µM
  viability, T/C: 42.1%

## O=C(C=Cn1cnc(-c2cc(C(F)(F)F)cc(C(F)(F)F)c2)n1)NNc1cnccn1 + NC1CCC(NC2CC2c2ccccc2)CC1
Second compound 0.1 µM
  IC50: 214 nM
Second compound 0.316 µM
  IC50: 138 nM
Second compound 1 µM
  IC50: 289 nM
Second compound 3.16 µM
  IC50: 254 nM
Second compound 10 µM
  IC50: 340 nM
Second compound 0.1 µM, first compound 0.00316 µM
  viability, T/C: 75.4%
Second compound 0.1 µM, first compound 0.01 µM
  viability, T/C: 78.2%
[1]
  viability, T/C: 78.6%
[2]
  viability, T/C: 59.9%
[3]
  viability, T/C: 44.8%
[4]
  viability, T/C: 24.6%
Second compound 0.316 µM, first compound 0.00316 µM
  viability, T/C: 81.8%
Second compound 0.316 µM, first compound 0.01 µM
  viability, T/C: 86.2%
[5]
  viability, T/C: 78.8%
[6]
  viability, T/C: 49%
[7]
  viability, T/C: 44.1%
[8]
  viability, T/C: 25.2%
Second compound 1 µM, first compound 0.00316 µM
  viability, T/C: 76%
Second compound 1 µM, first compound 0.01 µM
  viability, T/C: 74.7%
[9]
  viability, T/C: 77%
[10]
  viability, T/C: 68.2%
[11]
  viability, T/C: 48.6%
[12]
  viability, T/C: 20.1%
Second compound 3.16 µM, first compound 0.00316 µM
  viability, T/C: 75.8%
Second compound 3.16 µM, first compound 0.01 µM
  viability, T/C: 86.9%
[13]
  viability, T/C: 75.5%
[14]
  viability, T/C: 67.2%
[15]
  viability, T/C: 46.2%
[16]
  viability, T/C: 25.3%
Second compound 10 µM, first compound 0.00316 µM
  viability, T/C: 67.2%
Second compound 10 µM, first compound 0.01 µM
  viability, T/C: 71.7%
[17]
  viability, T/C: 66.6%
[18]
  viability, T/C: 61.8%
[19]
  viability, T/C: 53.5%
[20]
  viability, T/C: 17.3%
